Measurements taken from patent US20070160725A1, “Use of extracts and compounds of allium-genus plants as preservatives in the food and agri-food industries” (MOUSALA, S., L., priority 2004, published 2007).
Read-outs that look alike come from different tables or passages of the source.

Columns and labels:
Assay in all cases: agar diffusion, inhibition halo
Type in all cases: cell-based
[1] = test system: Trichoderma aureoviride CECT 20102
Description: (§1) In order to evaluate the antimicrobial activity the agar diffusion technique with cellulose discs of 6 mm in diameter impregnated with the different active ingredient testing doses was used.
(§2) Antifungal capacity was assessed against suspensions of […], harvested from pure cultures of the selected molds and against suspensions of 10^7 cells/ml for the case of yeasts. The culture medium used was the 2% Sabouraud-glucose medium (Merck).
(§3) After incubating the culture dishes inoculated with the different organisms at the corresponding temperatures, the microbial inhibition halos that appeared were measured, and said measurement includes the 6 mm diameter of the cellulose discs.

[2] = test system: Penicillium italicum CECT 2294
Description: as §1, §2, §3

[3] = test system: Geotrichum candidum CECT 1902
Description: as §1, §2, §3

[4] = test system: Candida krusei, isolated from cheese
Description: as §1, §2, §3

[5] = test system: Penicillium sp, isolated from cheese
Description: as §1, §2, §3

[6] = test system: Aspergillus terreus, isolated from the environment of the cheese maturation chamber
Description: as §1, §2, §3

[7] = test system: Aspergillus niger, CECT 2700
Description: as §1, §2, §3

[8] = test system: Bacillus subtilis, isolated from paprika
Description: as §1
(§4) Antibacterial capacity was assessed against suspensions of 10^6 cells/ml, prepared from pure young cultures of each one of the strains to be tested. The culture medium used was Müller-Hinton medium (Merck).
as §3

[9] = test system: Listeria monocytogenes, ATCC 15313
Description: as §1, §4, §3

[10] = test system: Bacillus cereus, CECT 1178
Description: as §1, §4, §3

[11] = test system: Escherichia coli, CECT 515
Description: as §1, §4, §3

[12] = Penicillium italicum, CECT2294, 1000 ppm of commercial product, read-out: inhibition halo diameter
[13] = Penicillium italicum, CECT2294, 2000 ppm of commercial product, read-out: inhibition halo diameter
[14] = Penicillium italicum, CECT2294, 4000 ppm of commercial product, read-out: inhibition halo diameter
[15] = Penicillium italicum, CECT2294, read-out: inhibition halo diameter

With `C=CCOC(Cn1ccnc1)c1ccc(Cl)cc1Cl` (stereo not shown) [Imazalil] the inhibition halo diameter ([1]; 1000 ppm of commercial product) was 20 mm, the inhibition halo diameter ([1]; 2000 ppm of commercial product) was 25 mm and the inhibition halo diameter ([1]; 4000 ppm of commercial product) was 31 mm. The zone of inhibition at 1000 µg/mL [2, 12] was 46 mm, the zone of inhibition at 2000 µg/mL [2, 13] was 47 mm and the zone of inhibition at 4000 µg/mL [2, 14] was 50 mm. For the same compound, the inhibition halo diameter ([3]; 1000 ppm of commercial product) was 20 mm, the inhibition halo diameter ([3]; 2000 ppm of commercial product) was 23 mm and the inhibition halo diameter ([3]; 4000 ppm of commercial product) was 26 mm.

For `C=CC1SC=CCS1` (stereo not shown) [2-vinyl-4H-1,3-dithiin], the zone of inhibition at 125 ppm ([2]; Penicillium italicum, CECT2294, 125 ppm, read-out: inhibition halo diameter) was 0 mm, the zone of inhibition at 250 ppm ([2]; Penicillium italicum, CECT2294, 250 ppm, read-out: inhibition halo diameter) was 0 mm and the zone of inhibition at 500 ppm ([2]; Penicillium italicum, CECT2294, 500 ppm, read-out: inhibition halo diameter) was 8 mm. It also gave a zone of inhibition at 1000 ppm ([2]; Penicillium italicum, CECT2294, 1000 ppm, read-out: inhibition halo diameter) of 10 mm, an inhibition halo diameter ([3]; 125 ppm) of 7 mm and an inhibition halo diameter ([3]; 250 ppm) of 7 mm. For the same compound, the inhibition halo diameter ([3]; 500 ppm) was 10 mm, the inhibition halo diameter ([3]; 1000 ppm) was 15 mm and the inhibition halo diameter ([4]; 125 ppm) was 7 mm. The inhibition halo diameter ([4]; 250 ppm) was 10 mm, the inhibition halo diameter ([4]; 500 ppm) was 10 mm and the inhibition halo diameter ([4]; 1000 ppm) was 12 mm. It also gave an inhibition halo diameter ([5]; 125 ppm) of 0 mm, an inhibition halo diameter ([5]; 250 ppm) of 8 mm and an inhibition halo diameter ([5]; 500 ppm) of 10 mm. The inhibition halo diameter ([5]; 1000 ppm) was 12 mm, the inhibition halo diameter ([6]; 125 ppm) was 0 mm and the inhibition halo diameter ([6]; 250 ppm) was 0 mm. For the same compound, the inhibition halo diameter ([6]; 500 ppm) was 6 mm, the inhibition halo diameter ([6]; 1000 ppm) was 7 mm and the inhibition halo diameter ([7]; 125 ppm) was 7 mm. The inhibition halo diameter ([7]; 250 ppm) was 7 mm, the inhibition halo diameter ([7]; 500 ppm) was 10 mm and the inhibition halo diameter ([7]; 1000 ppm) was 15 mm. The inhibition halo diameter ([8]; 125 ppm) was 7 mm, the inhibition halo diameter ([8]; 250 ppm) was 10 mm and the inhibition halo diameter ([8]; 500 ppm) was 13 mm. It also gave an inhibition halo diameter ([8]; 1000 ppm) of 15 mm, an inhibition halo diameter ([9]; 125 ppm) of 0 mm and an inhibition halo diameter ([9]; 250 ppm) of 7 mm. It also gave an inhibition halo diameter ([9]; 500 ppm) of 8 mm, an inhibition halo diameter ([9]; 1000 ppm) of 10 mm and an inhibition halo diameter ([10]; 125 ppm) of 7 mm. For the same compound, the inhibition halo diameter ([10]; 250 ppm) was 9 mm, the inhibition halo diameter ([10]; 500 ppm) was 10 mm and the inhibition halo diameter ([10]; 1000 ppm) was 12 mm. The inhibition halo diameter ([11]; 125 ppm) was 0 mm, the inhibition halo diameter ([11]; 250 ppm) was 0 mm and the inhibition halo diameter ([11]; 500 ppm) was 0 mm. For the same compound, the inhibition halo diameter ([11]; 1000 ppm) was 0 mm.

`CCCN(CCOc1c(Cl)cc(Cl)cc1Cl)C(=O)n1ccnc1` [Prochloraz] was tested, and the inhibition halo diameter ([1]; 1000 ppm of commercial product) was 8 mm, the inhibition halo diameter ([1]; 2000 ppm of commercial product) was 11 mm and the inhibition halo diameter ([1]; 4000 ppm of commercial product) was 12 mm. The zone of inhibition at 1000 µg/mL [2, 15] was 31 mm, the zone of inhibition at 2000 µg/mL [2, 15] was 35 mm and the zone of inhibition at 4000 µg/mL [2, 15] was 35 mm. It also gave an inhibition halo diameter ([3]; 1000 ppm of commercial product) of 0 mm, an inhibition halo diameter ([3]; 2000 ppm of commercial product) of 0 mm and an inhibition halo diameter ([3]; 4000 ppm of commercial product) of 0 mm.

`c1ccc2[nH]c(-c3cscn3)nc2c1` [Thiabendazole] gave an inhibition halo diameter ([1]; 1000 ppm of commercial product) of 24 mm, an inhibition halo diameter ([1]; 2000 ppm of commercial product) of 26 mm and an inhibition halo diameter ([1]; 4000 ppm of commercial product) of 26 mm. The zone of inhibition at 1000 µg/mL [2, 12] was greater than 40 mm, the zone of inhibition at 2000 µg/mL [2, 13] was greater than 40 mm and the zone of inhibition at 4000 µg/mL [2, 14] was greater than 40 mm. It also gave an inhibition halo diameter ([3]; 1000 ppm of commercial product) of 0 mm, an inhibition halo diameter ([3]; 2000 ppm of commercial product) of 0 mm and an inhibition halo diameter ([3]; 4000 ppm of commercial product) of 0 mm.

Compound Guazatine has an inhibition halo diameter ([1]; 1000 ppm of commercial product) of 25 mm, an inhibition halo diameter ([1]; 2000 ppm of commercial product) of 30 mm and an inhibition halo diameter ([1]; 4000 ppm of commercial product) of 35 mm. It also gave an inhibition halo diameter ([2]; 1000 ppm of commercial product) of 10 mm, an inhibition halo diameter ([2]; 2000 ppm of commercial product) of 12 mm and an inhibition halo diameter ([2]; 4000 ppm of commercial product) of 15 mm. The inhibition halo diameter ([3]; 1000 ppm of commercial product) was 27 mm, the inhibition halo diameter ([3]; 2000 ppm of commercial product) was 30 mm and the inhibition halo diameter ([3]; 4000 ppm of commercial product) was 35 mm.
